Reference: article PMC5345165, “Cardiotoxicity evaluation using human embryonic stem cells and induced pluripotent stem cell-derived cardiomyocytes” (Stem Cell Research & Therapy, 2017)
Blank lines part the entries; values can stand above or below the compound they belong to.

What was measured:
[1] = test system: hiPSC-CMs; experiment: xCELLigence RTCA Cardio impedance assay on hiPSC-CMs; assay type: cell-based, human; details: for CI (concentration at which cell index is decreased, ↓): arrow ↓ = CI decreased
Experimental: (§1) Human ESC-CMs were kindly provided by the Institute of Biophysics of the Chinese Academy of Sciences, Beijing, China. Human iPSC-CMs, provided by a domestic manufacturer (Cellapy: CA2001106, Beijing, China), were also examined. Cells were incubated in maintaining medium at 37 °C, 5% CO2, with culture medium refreshed every 2 days. Cells were dissociated and replated into 96-well E-plates (ACEA Biosciences, Hangzhou, China), which was pre-coated with 0.1% gelatin. Cells were plated at a density of 50,000 cells per well.
(§2) Spontaneous cardiomyocytes contraction and cell health were monitored in real-time by impedance using xCELLigence real-time cellular analyzer (RTCA) Cardio system (ACEA Biosciences, Hangzhou, China). Impedance signals were monitored and recorded with 20 s recording per sweep.
(§3) Drug dilutions were equilibrated in a 37 °C, 5% CO2 incubator for 30 min before being applied to E-plates.
(§4) For data analysis, cellular impedance index, beat rate, and amplitude were measured off-line using RTCA Cardio software 1.0 and normalized for each well to the baseline (pre-dose) values measured prior to the compounds treatment. Statistics were performed using SPSS 21.0 (IBM Corp., Armonk, NY, USA). Data were presented as mean ± SEM. Statistical significance of differences was estimated by one-way ANOVA or Student’s t test. p < 0.05 was considered significant.

[2] = test system: hESC-CMs; experiment: xCELLigence RTCA Cardio impedance assay on hESC-CMs; assay type: cell-based, human; details: for CI (concentration at which cell index is decreased, ↓): arrow ↓ = CI decreased, NO = no effect
Experimental: as §1, §2, §3, §4

[3] = hiPSC-CMs, concentration-dependent
[4] = hiPSC-CMs, concentration-dependent effect, impedance
[5] = concentration-dependent effect, impedance

Compound: Cc1cccc(CCN2CCC(C(=O)c3ccc(NS(C)(=O)=O)cc3)CC2)n1 [E-4031]
CI amplitude ([1]; hiPSC-CMs, 30 nmol/L, 18 h culture, tended to recover at 24 h): Reduction
time at which spontaneous beating ceased ([1]; hiPSC-CMs, 100 nmol/L): 12 h
spontaneous beating rate ([1]; hiPSC-CMs, 100 nmol/L, 6 h after administration): markedly reduced
time post administration at which spontaneous activity was abolished ([1]; hiPSC-CMs, 300 nmol/L): 2 h
spontaneous beating rate ([1]; hiPSC-CMs, 300 nmol/L, 1 h after administration): significantly reduced
time at which cells recovered automaticity ([2]; 10 nmol/L): 24 h
time post administration at which spontaneous beating ceased ([2]; 300 nmol/L): 0.5 h
time of temporary recovery of spontaneous beating activity ([2]; 300 nmol/L, one recording): 18 h
time post administration at which spontaneous activity ceased ([2]; 10, 30 and 100 nmol/L): 6 h
spontaneous beating rate ([2]; all concentrations (10, 30, 100, 300 nmol/L), upon immediate administration): Reduction

CI (concentration at which cell index is decreased, ↓) ([1]; hiPSC-CMs): 10↓ μmol•L^-1
effect on CI and pulse signals [1, 3]: reduced
IC50/EC50 (IC50) [1, 4]: 5.17 µM
effect on CI and pulse signals ([2]; concentration-dependent): reduced
IC50/EC50 (IC50) [2, 5]: 0.14 µM
Compound: O=C(CCCN1CCC(O)(c2ccc(Cl)cc2)CC1)c1ccc(F)cc1 [Haloperidol, haloperidol]
spontaneous beating rate ([1]; hPSC-CMs, 0.1 μmol/L): Mild reduction
time post administration at which beating rate recovered ([1]; hPSC-CMs, 0.1 μmol/L): 18 h
beating rate ([1]; hPSC-CMs, 1 μmol/L, after 0.5 h): significantly reduced
time at which cellular automaticity ceased ([1]; hPSC-CMs, 10 μmol/L): 0.5 h
time at which self-recovery was observed ([1]; hPSC-CMs, 10 μmol/L): 24 h
amplitude compared with controls ([1]; hPSC-CMs, 10 μmol/L, after self-recovery at 24 h): significantly decreased
beating rate ([2]; 0.01 μmol/L, 6 h post administration): mild reduction
spontaneous beating rate and amplitudes ([2]; 0.1 μmol/L): significantly reduced
time at which cellular automaticity ceased ([2]; 1 μmol/L): 0.5 h
time post administration at which partial recovery was observed ([2]; 1 μmol/L): 24 h
self-recovery after abolished spontaneous beating ([2]; 10 μmol/L, investigation period): no self-recovery

CI (concentration at which cell index is decreased, ↓) ([1]; hiPSC-CMs): 1↓ μmol•L^-1
effect on CI [1, 3]: decrease
IC50/EC50 (EC50) [1, 4]: 0.03 µM
CI (concentration at which cell index is decreased, ↓) [2]: 0.1↓ μmol•L^-1
CI (concentration at which cell index is decreased, ↓) ([2]; listed as isoprenaline): ≥ 0.1 µmol/L
IC50/EC50 (EC50) [2, 5]: 0.04 µM
Compound: CC(C)NCC(O)c1ccc(O)c(O)c1 (stereo not drawn) [Isoprenaline, isoprenaline]
amplitude ([1]; hPSC-CMs, 0.1, 1 and 10 μmol/L): increased
time at which beating rate recovered ([1]; hiPSC-CMs, 0.1, 1 and 10 μmol/L): 24 h
beating rate ([1]; hiPSC-CMs, 0.1, 1 and 10 μmol/L, after 0.5 h of administration): significantly increased
time after which beating rate recovered ([2]; 0.01 μmol/L): 12 h
spontaneous beating rate ([2]; 0.01 μmol/L, 0.5 h post injection): increased
time at which automaticity recovered ([2]; 0.1, 1 and 10 μmol/L): 24 h
cellular automaticity ([2]; 0.1, 1 and 10 μmol/L, 0.5 h post injection): significantly increased

CI (concentration at which cell index is decreased, ↓) ([1]; hiPSC-CMs): 100↓ μmol•L^-1
effect on CI [1, 3]: reduced
IC50/EC50 (IC50) [1, 4]: 13.97 µM
effect on CI ([2]; 100 μmol/L, when perfusion was initiated): significant temporary decrease
CI (concentration at which cell index is decreased, ↓) [2]: 100↓ μmol•L^-1
IC50/EC50 (IC50) [2, 5]: 2.18 µM
Compound: C=C[C@H]1C[N@@]2CC[C@H]1C[C@@H]2[C@@H](O)c1ccnc2ccc(OC)cc12 [Quinidine, quinidine]
concentration that weakened the amplitudes of pulse signals ([1]; hiPSC-CMs): ≥ 12.5 µmol/L
time after which beating rate spontaneously recovered ([1]; hiPSC-CMs, 3.13 μmol/L): 1 h
beating rate ([1]; hiPSC-CMs, 3.13 μmol/L, 0.5 h after administration): markedly reduced
time after which amplitude recovered ([1]; hiPSC-CMs, 12.5 μmol/L): 2 h
amplitude ([1]; hiPSC-CMs, 12.5 μmol/L, 0.5 h and 1 h post administration): substantially reduced
self-recovery of automaticity within the observation period ([1]; hiPSC-CMs, 50 and 100 μmol/L): without self-recovery
time after administration at which cellular automaticity ceased ([1]; hiPSC-CMs, 50 and 100 μmol/L): 0.5 h
time at which spontaneous beating recovered ([2]; 12.5 μmol/L): 6 h
time at which spontaneous beating recovered ([2]; 50 μmol/L): 24 h
self-recovery after abolished cellular automaticity ([2]; 100 μmol/L): without observing self-recovery
time post administration at which spontaneous beating ceased ([2]; 12.5 and 50 μmol/L): 0.5 h
concentration that weakened the pulse signals ([2]; concentration-dependent): ≥ 3.13 µmol/L
